Measurements taken from patent US11000033B2, “Ketone or oxime compound, and herbicide” (NISSAN CHEMICAL CORPORATION, priority 2014, dated 2021).

Experiments:
Format in all cases: in vivo
Monochoria vaginalis = test: Test Example 2: herbicidal activity, application during weed generation in submerged conditions (symbol C); conditions: Table 23; application herbicide amount 320 g/ha; grade 0-5 by criteria of Test Example 1
Summary of the method: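 Seeds sown in flooded alluvial soil (4 cm water) were grown in a 25-30° C greenhouse. At the one- to two-leaf stage, diluted emulsion of compound was applied to the water surface at a predetermined rate. Effect was scored 3 weeks later.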

rapeseed [1] = test: Test Example 4: effect on crop by soil treatment (symbol g); conditions: application herbicide amount 320 g/ha
Summary of the method: (§1)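 Steps: fill box with sterilized diluvial soil; sow seed spot-like; cover with ~1.5 cm soil; grow in greenhouse (25° C. to 30° C.).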

Abutilon theophrasti = test: Test Example 5: herbicidal effect by foliage application, plastic box (symbol M); conditions: 320 g/ha, 3 weeks after application
Summary of the method: (§2)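 Seeds were sown in sterilized diluvial soil, covered with about 1.5 cm of soil and grown 14 days in a greenhouse at 25° C. to 30° C. An emulsifiable formulation diluted in water to a set rate was sprayed over foliage, and injury was scored 3 weeks later.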

Chenopodium album = test: Test Example 5: herbicidal effect by foliage application, plastic box (symbol O); conditions: 320 g/ha, 3 weeks after application
Summary of the method: as §2

rapeseed [2] = test: Test Example 5: effect on crop by foliage application, plastic box (symbol g); conditions: 320 g/ha, 3 weeks after application
Summary of the method: (§3)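 Crop and weed seeds sown in spots in sterilized diluvial soil in plastic boxes and covered with about 1.5 cm soil. Plants raised in a greenhouse at 25° C. to 30° C. for foliar application.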

Scirpus juncoides = test: Test Example 1: herbicidal activity, application before weed generation in submerged conditions (symbol B); conditions: application herbicide amount 320 g/ha
Summary of the method: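 Compound emulsion was diluted to a set herbicide amount and applied to the water surface on the sowing day, into submerged (4 cm) alluvial-soil pots sown with mixed weed seeds and transplanted 2.5-leaf rice. Pots were held in a 25–30 °C greenhouse, and weeds were scored 0–5 by herbicidal ratio after 3 weeks.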

Avena fatua [3] = test: Test Example 4: herbicidal effect by soil treatment (symbol I); conditions: application herbicide amount 320 g/ha
Summary of the method: (§4)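 Seeds were sown in sterilized diluvial soil, covered with about 1.5 cm of soil, and the soil surface was sprayed with a water-diluted emulsion of the compound at a predetermined rate. Plants grew in a greenhouse at 25° C. to 30° C.; effects were scored visually 3 weeks after application.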

soybean = test: Test Example 5: effect on crop by foliage application, plastic box (symbol d); conditions: 320 g/ha, 3 weeks after application
Summary of the method: as §3

Setaria viridis [4] = test: Test Example 4: herbicidal effect by soil treatment (symbol G); conditions: application herbicide amount 320 g/ha
Summary of the method: as §4

Veronica persica [5] = test: Test Example 5: herbicidal effect by foliage application, plastic box (symbol R); conditions: 320 g/ha, 3 weeks after application
Summary of the method: as §2

Apera spica-venti [6] = test: Test Example 5: herbicidal effect by foliage application, plastic box (symbol L); conditions: 320 g/ha, 3 weeks after application
Summary of the method: as §2

Digitaria ciliaris = test: Test Example 5: herbicidal effect by foliage application, plastic box (symbol F); conditions: 320 g/ha, 3 weeks after application
Summary of the method: as §2

Avena fatua [7] = test: Test Example 5: herbicidal effect by foliage application, plastic box (symbol I); conditions: 320 g/ha, 3 weeks after application
Summary of the method: as §2

Apera spica-venti [8] = test: Test Example 4: herbicidal effect by soil treatment (symbol L); conditions: application herbicide amount 320 g/ha
Summary of the method: as §4

Setaria viridis [9] = test: Test Example 5: herbicidal effect by foliage application, plastic box (symbol G); conditions: 320 g/ha, 3 weeks after application
Summary of the method: as §2

rice = test: Test Example 4: effect on crop by soil treatment (symbol b); conditions: application herbicide amount 320 g/ha
Summary of the method: as §1

[10] = test system: Echinochloa crus-galli var. crus-galli; test: Test Example 5: herbicidal effect by foliage application, plastic box (symbol H); conditions: 320 g/ha, 3 weeks after application
Summary of the method: as §2

Veronica persica [11] = test: Test Example 4: herbicidal effect by soil treatment (symbol R); conditions: application herbicide amount 320 g/ha
Summary of the method: as §4

Compound	Herbicidal effect grade, C: Monochoria vaginalis (Monochoria vaginalis)	g (rapeseed) effect on crop grade (rapeseed [1])	M: Abutilon theophrasti, herbicidal effect grade (Abutilon theophrasti)	O: Chenopodium album, herbicidal effect grade (Chenopodium album)	g: rapeseed, effect on crop grade (rapeseed [2])	Herbicidal effect grade, B: Scirpus juncoides (Scirpus juncoides)	I (Avena fatua) herbicidal effect grade (Avena fatua [3])	d: soybean, effect on crop grade (soybean)	G (Setaria viridis) herbicidal effect grade (Setaria viridis [4])	R: Veronica persica, herbicidal effect grade (Veronica persica [5])	L: Apera spica-venti, herbicidal effect grade (Apera spica-venti [6])	F: Digitaria ciliaris, herbicidal effect grade (Digitaria ciliaris)	I: Avena fatua, herbicidal effect grade (Avena fatua [7])	L (Apera spica-venti) herbicidal effect grade (Apera spica-venti [8])	G: Setaria viridis, herbicidal effect grade (Setaria viridis [9])	b (directly sowed rice plant) effect on crop grade (rice)	H: Echinochloa crus-galli var. crus-galli, herbicidal effect grade [10]	R (Veronica persica) herbicidal effect grade (Veronica persica [11])
CON=C(C)CC1CC(OC(=O)C(C)(C)Oc2ccccc2Cl)=C(c2c(C)cc(C)cc2C)C1=O (stereo not drawn) [1-064]	1 (Herbicidal ratio of 5% or higher and lower than 20%)	4 (Herbicidal ratio of 70% or higher and lower than 90%)	4 (Herbicidal ratio of 70% or higher and lower than 90%)	0 (Herbicidal ratio of 5% or lower (almost no effect))	4 (Herbicidal ratio of 70% or higher and lower than 90%)	5 (Herbicidal ratio of 90% or more (almost completely withered))	3 (Herbicidal ratio of 40% or higher and lower than 70%)	4 (Herbicidal ratio of 70% or higher and lower than 90%)	5 (Herbicidal ratio of 90% or more (almost completely withered))	3 (Herbicidal ratio of 40% or higher and lower than 70%)	5 (Herbicidal ratio of 90% or more (almost completely withered))	5 (Herbicidal ratio of 90% or more (almost completely withered))	5 (Herbicidal ratio of 90% or more (almost completely withered))	5 (Herbicidal ratio of 90% or more (almost completely withered))	5 (Herbicidal ratio of 90% or more (almost completely withered))	5 (Herbicidal ratio of 90% or more (almost completely withered))	5 (Herbicidal ratio of 90% or more (almost completely withered))	0 (Herbicidal ratio of 5% or lower (almost no effect))
CON=C(C)CC1CC(OC(=O)C(C)(C)Oc2cccc(Cl)c2)=C(c2c(C)cc(C)cc2C)C1=O (stereo not drawn) [1-065]	0 (Herbicidal ratio of 5% or lower (almost no effect))	4 (Herbicidal ratio of 70% or higher and lower than 90%)	4 (Herbicidal ratio of 70% or higher and lower than 90%)	2 (Herbicidal ratio of 20% or higher and lower than 40%)	4 (Herbicidal ratio of 70% or higher and lower than 90%)	5 (Herbicidal ratio of 90% or more (almost completely withered))	3 (Herbicidal ratio of 40% or higher and lower than 70%)	4 (Herbicidal ratio of 70% or higher and lower than 90%)	5 (Herbicidal ratio of 90% or more (almost completely withered))	3 (Herbicidal ratio of 40% or higher and lower than 70%)	5 (Herbicidal ratio of 90% or more (almost completely withered))	5 (Herbicidal ratio of 90% or more (almost completely withered))	5 (Herbicidal ratio of 90% or more (almost completely withered))	5 (Herbicidal ratio of 90% or more (almost completely withered))	5 (Herbicidal ratio of 90% or more (almost completely withered))	5 (Herbicidal ratio of 90% or more (almost completely withered))	5 (Herbicidal ratio of 90% or more (almost completely withered))	0 (Herbicidal ratio of 5% or lower (almost no effect))
